From PubChem BioAssay AID2060492 (Molecular Pharmacology Branch, DTP, NCI, 2025)
pIC50: −log10 of the molar value.

Test system: 695427-040-R-J1-PDC complex spheroids, viability percent T/C
Assay: Anticancer human tumor 695427-040-R-J1-PDC patient-derived colon adenocarcinoma cell line growth inhibition [GQUAD]
Settings: for pIC50: curve of first compound; for viability, T/C: stronger effect = lower value
Excerpt: DNA G-quadruplex Stabilizer Agents in Combinations in Complex Spheroids
A high-throughput screen of multi-cell type tumor spheroids was designed to identify active combinations of DNA G-quadruplex stabilizer agents and targeted small molecules. Complex spheroids include a stromal component modeled by human endothelial cells (HUVEC) and fibroblasts modeled by human mesenchymal stem cells (MSCs). The concentration ranges selected for each drug and investigational agent were based upon clinically achievable concentrations if the clinical Cmax of the agent was known.
Compounds. The drugs and investigational agents: pidnarulex (CX-5461; NSC782164), APTO-253 (NSC789042), BRACO-19 (NSC847499), peposertib (NSC802822), ceralasertib (NSC780249), elimusertib (NSC800525), camonsertib (NSC841442), AZD-1390 (NSC803789), olaparib (NSC753686), talazoparib (NSC767125), ART-558 (NSC835418), sotorasib (NSC818433), MRTX-1133 (NSC836407), SN-38 (NSC673596), topotecan (NSC609699), etoposide (NSC141540), doxorubicin (NSC123127), gemcitabine (NSC613327), 5-fluorouracil (NSC19893), paclitaxel (NSC125973), vemurafenib (NSC761431), panobinostat (NSC761190), R-306465 (JNJ-16241199; NSC773264), adavosertib (NSC754352), TP-3654 (NSC805149), carboplatin (NSC241240), KSQ-4279 (NSC840948), and staurosporine (NSC755774) were obtained from the National Cancer Institute (NCI) Developmental Therapeutics Program Chemical Repository (34). The FDA-approved anticancer drug set is available from the NCI Developmental Therapeutics Program. […] The stock solutions were prepared in dimethyl sulfoxide (DMSO, Sigma-Aldrich, St. Louis, MO, cat. D2650) at 800-fold the tested concentration and stored at -70 degrees C prior to their use. All drugs and investigational agents were tested over a range starting from a high concentration at or near the clinical Cmax and decreasing in half-log increments. If the clinical Cmax for an agent had not been determined, the highest concentration tested was 10 microM.
2.3 Cell Culture. All cells were maintained in an incubator at 37 degrees C and 5% CO2 with 95% humidity. The PDC lines were cultured according to standard operating procedures established by the NCI PDMR. All PDCs were thawed and cultured in Matrigel-coated flasks prepared with a working solution of 1X Ham's F-12 nutrient mix, without supplementation (Invitrogen, cat. 11765054), 100 U/mL penicillin-streptomycin (Invitrogen, cat. 15140122), and 2.5% Matrigel (Corning Inc., cat. 354248) for the first three passages. The 857933-349-R-J2-PDC line was cultured in 6C/Colon 1B media, which includes advanced DMEM/F-12 (Thermo Fisher Scientific, cat. 12634028), 10 mM HEPES (Thermo Fisher Scientific, cat. 15630080), 1X GlutaMAX supplement (Thermo Fisher Scientific, cat. 35050061), 0.1 mg/mL primocin (InvivoGen, cat. ant-pm-2), 10% defined fetal bovine serum, heat inactivated (HyClone Laboratories Inc., cat. SH30070.03HI), 50% L-WRN conditioned media (ATCC, cat. CRL-3276), 1.25 mM N-Acetyl-L-cysteine (Sigma-Aldrich, cat. A9165), 10 mM nicotinamide (Sigma-Aldrich, cat. N0636), 1X B-27 supplement (Thermo Fisher Scientific, cat. 17504044), 1X N-2 supplement (Thermo Fisher Scientific, cat. 17502048), 10 microM Y-27632 dihydrochloride (Tocris Bioscience, cat. 1254), and 50 ng/mL human EGF recombinant protein (Thermo Fisher Scientific, cat. PHG0311). The 485176-168-R4-J1-PDC line was cultured in Panc media, which includes all 6C/Colon 1B media components plus 100 ng/mL human FGF-10 (Thermo Fisher Scientific, cat. 100-26), 500 nM SB-431542 (Selleckchem, cat. S1067), and gastrin (Tocris, cat. 3006).
[…]

[1] = second compound 0.0316 µM, first compound 0.0316 µM
[2] = second compound 0.0316 µM, first compound 0.1 µM
[3] = second compound 0.0316 µM, first compound 0.316 µM
[4] = second compound 0.0316 µM, first compound 1 µM
[5] = second compound 0.0316 µM, first compound 3.16 µM
[6] = second compound 0.0316 µM, first compound 10 µM
[7] = second compound 0.1 µM, first compound 0.0316 µM
[8] = second compound 0.1 µM, first compound 0.1 µM
[9] = second compound 0.1 µM, first compound 0.316 µM
[10] = second compound 0.1 µM, first compound 1 µM
[11] = second compound 0.1 µM, first compound 3.16 µM
[12] = second compound 0.1 µM, first compound 10 µM
[13] = second compound 0.316 µM, first compound 0.0316 µM
[14] = second compound 0.316 µM, first compound 0.1 µM
[15] = second compound 0.316 µM, first compound 0.316 µM
[16] = second compound 0.316 µM, first compound 1 µM
[17] = second compound 0.316 µM, first compound 3.16 µM
[18] = second compound 0.316 µM, first compound 10 µM
[19] = second compound 1 µM, first compound 0.0316 µM
[20] = second compound 1 µM, first compound 0.1 µM
[21] = second compound 1 µM, first compound 0.316 µM
[22] = second compound 1 µM, first compound 1 µM
[23] = second compound 1 µM, first compound 3.16 µM
[24] = second compound 1 µM, first compound 10 µM
[25] = second compound 3.16 µM, first compound 0.0316 µM
[26] = second compound 3.16 µM, first compound 0.1 µM
[27] = second compound 3.16 µM, first compound 0.316 µM
[28] = second compound 3.16 µM, first compound 1 µM
[29] = second compound 3.16 µM, first compound 3.16 µM
[30] = second compound 3.16 µM, first compound 10 µM
[31] = second compound 10 µM, first compound 0.0316 µM
[32] = second compound 10 µM, first compound 0.1 µM
[33] = second compound 10 µM, first compound 0.316 µM
[34] = second compound 10 µM, first compound 1 µM
[35] = second compound 10 µM, first compound 3.16 µM
[36] = second compound 10 µM, first compound 10 µM
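Note: spheroids exposed to compounds for seven days before readout.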

O=c1[nH]cc(F)c(=O)[nH]1 + CN(C)c1ccc(Nc2c3ccc(NC(=O)CCN4CCCC4)cc3nc3cc(NC(=O)CCN4CCCC4)ccc23)cc1
pIC50 (second compound 0.0316 µM): < 5.00
pIC50 (second compound 0.1 µM): < 5.00
pIC50 (second compound 0.316 µM): < 5.00
pIC50 (second compound 1 µM): < 5.00
pIC50 (second compound 3.16 µM): < 5.00
pIC50 (second compound 10 µM): < 5.00
viability, T/C [1]: 101%
viability, T/C [2]: 90.5%
viability, T/C [3]: 90.5%
viability, T/C [4]: 92.6%
viability, T/C [5]: 95.5%
viability, T/C [6]: 97.5%
viability, T/C [7]: 103%
viability, T/C [8]: 90.1%
viability, T/C [9]: 94.9%
viability, T/C [10]: 83.8%
viability, T/C [11]: 99.8%
viability, T/C [12]: 91.5%
viability, T/C [13]: 106%
viability, T/C [14]: 100%
viability, T/C [15]: 99.7%
viability, T/C [16]: 92.8%
viability, T/C [17]: 94.7%
viability, T/C [18]: 94.5%
viability, T/C [19]: 103%
viability, T/C [20]: 96.9%
viability, T/C [21]: 98%
viability, T/C [22]: 96.9%
viability, T/C [23]: 97.7%
viability, T/C [24]: 92.5%
viability, T/C [25]: 92.1%
viability, T/C [26]: 100%
viability, T/C [27]: 90.3%
viability, T/C [28]: 88.3%
viability, T/C [29]: 90.5%
viability, T/C [30]: 91%
viability, T/C [31]: 87.8%
viability, T/C [32]: 92.6%
viability, T/C [33]: 78%
viability, T/C [34]: 82.4%
viability, T/C [35]: 85.7%
viability, T/C [36]: 83.4%

CC1COCCN1c1cc(-c2ccnn2C)c2ccnc(-c3ccn[nH]3)c2n1 (centres undefined) + Cc1[nH]c2ccc(F)cc2c1-c1nc2c3cccnc3c3ncccc3c2[nH]1
pIC50 (second compound 0.0316 µM): 6.54
pIC50 (second compound 0.1 µM): 6.57
pIC50 (second compound 0.316 µM): 6.59
pIC50 (second compound 1 µM): 6.87
pIC50 (second compound 3.16 µM): 7.25
pIC50 (second compound 10 µM): 7.16
viability, T/C [1]: 86.8%
viability, T/C [2]: 63.2%
viability, T/C [3]: 47.6%
viability, T/C [4]: 42%
viability, T/C [5]: 29.8%
viability, T/C [6]: 27.2%
viability, T/C [7]: 91.9%
viability, T/C [8]: 63.6%
viability, T/C [9]: 53.3%
viability, T/C [10]: 30.3%
viability, T/C [11]: 34.9%
viability, T/C [12]: 30.4%
viability, T/C [13]: 78.5%
viability, T/C [14]: 75.5%
viability, T/C [15]: 44.7%
viability, T/C [16]: 28.5%
viability, T/C [17]: 28.5%
viability, T/C [18]: 30.1%
viability, T/C [19]: 68.5%
viability, T/C [20]: 54.5%
viability, T/C [21]: 37.5%
viability, T/C [22]: 31.8%
viability, T/C [23]: 31.4%
viability, T/C [24]: 29.7%
viability, T/C [25]: 57.8%
viability, T/C [26]: 41.7%
viability, T/C [27]: 34.2%
viability, T/C [28]: 31%
viability, T/C [29]: 25.5%
viability, T/C [30]: 27.1%
viability, T/C [31]: 57.9%
viability, T/C [32]: 47.5%
viability, T/C [33]: 35.4%
viability, T/C [34]: 29.6%
viability, T/C [35]: 27.3%
viability, T/C [36]: 20.7%
